Molecular target: T1, rabbit reticulocyte 15-LO (Oryctolagus cuniculus, UniProt P12530)
T1 construct: Fifteen-lipoxygenase was obtained from phenylhydrazine-treated rabbits and purified per the method of Rapoport; from tissue; host or cells: reticulocytes of phenylhydrazine-treated rabbits
T1 sequence (P12530 1-663): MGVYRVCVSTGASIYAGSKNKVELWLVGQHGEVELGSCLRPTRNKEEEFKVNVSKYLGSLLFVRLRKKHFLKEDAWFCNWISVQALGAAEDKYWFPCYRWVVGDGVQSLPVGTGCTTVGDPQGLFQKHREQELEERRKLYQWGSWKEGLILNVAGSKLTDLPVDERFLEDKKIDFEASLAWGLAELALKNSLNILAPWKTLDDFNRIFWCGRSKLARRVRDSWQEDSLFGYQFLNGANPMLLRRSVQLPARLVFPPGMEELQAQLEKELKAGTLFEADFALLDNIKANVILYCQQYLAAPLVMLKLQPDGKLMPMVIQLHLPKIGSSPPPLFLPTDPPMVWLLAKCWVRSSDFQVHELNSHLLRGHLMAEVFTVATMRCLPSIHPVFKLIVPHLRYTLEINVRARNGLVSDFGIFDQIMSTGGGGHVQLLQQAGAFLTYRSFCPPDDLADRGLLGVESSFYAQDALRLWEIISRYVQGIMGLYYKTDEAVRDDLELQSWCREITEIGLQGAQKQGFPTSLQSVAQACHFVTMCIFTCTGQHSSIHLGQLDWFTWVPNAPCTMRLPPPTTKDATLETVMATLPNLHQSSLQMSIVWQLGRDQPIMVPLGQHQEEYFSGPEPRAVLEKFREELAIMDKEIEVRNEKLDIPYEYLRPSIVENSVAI
Test: Rabbit Reticulocyte 15-LO Assay (h15LO)
Assay type: biochemical
Details: Table 2; 2U rabbit reticulocyte 15-LO, 174 μM linoleic acid, 15 minutes at 4° C.
Protocol: Rabbit Reticulocyte 15-LO Assay (h15LO)
The present 15-LO assay takes advantage of the ability of 15-LO to oxidize the fatty acid linoleic acid to the hydroperoxy fatty acid 13-(S)HPODE, resulting in the formation of a conjugated diene. The 15-LO inhibitors are incubated with 15-LO enzyme in the presence of linoleic acid substrate. The initial reaction is compared to an uninhibited (maximal) reaction to yield % inhibition. […] This prevents artificial nonenzyme lipid peroxidation and product breakdown in the sample. 13-HPODE is quantitated by comparing peak areas of individual samples with those from a standard curve generated using authentic 13-HODE. This assay is performed using 2U of rabbit reticulocyte 15-LO in the presence of 174 μM linoleic acid. The reaction is incubated for 15 minutes at 4° C. The total reaction volume is 100 μL in PBS containing 0.2% Na cholate.
Fifteen-lipoxygenase was obtained from phenylhydrazine-treated rabbits and purified per the method of Rapoport (Rapoport S. M., Schewe T., Wiesner R., et al. The lipoxygenase of reticulocytes. Purification, characterization, and biological dynamics of the lipoxygenase; its identity with the respiratory inhibitors of the reticulocyte. European Journal of Biochemistry, 1979;96:545-561). The following chemicals were purchased and used as received: linoleic acid (NUJCheck Prep), 13-HPODE (Biomol Research Labs), sodium cholate (Sigma), trimethyl phosphite (Fluka Chemicals).

Row | IC50 [nM] | SMILES
1 | 982 | COc1ccc(C(=O)Nc2ccccc2)cc1NCc1ccc(F)cc1 [Example 224, 4-Methoxy-3-(4-fluoro-benzylamino)-N-phenyl-benzamide]
2 | 54 | COc1ccc(C(=O)Nc2ccccc2)cc1Nc1ccc(F)cc1 [Example 153, 3-(4-Fluoro-phenylamino)-4-methoxy-N-phenyl-benzamide]
3 | 100 | COc1ccc(C(=O)Nc2ccc(Cl)c(Cl)c2)cc1Nc1cccc(C(F)(F)F)c1 [Example 47, 4-Methoxy-3-(3-trifluoromethyl-phenylamino)-N-(3,4-dichlorophenyl)-benzamide]
4 | 1600 | O=C(Nc1ccccc1)c1cccc(Nc2cc(Cl)cc(Cl)c2)c1 [Example 26, 3-(3,5-Dichloro-phenylamino)-N-phenyl-benzamide]
5 | 800 | COc1ccc(C(=O)OCc2ccccc2)cc1NC(=S)Nc1cc(Cl)cc(Cl)c1 [Example 176, 3-[3-(3,5-Dichloro-phenyl)-thioureido]-4-methoxy-benzoic Acid Benzyl Ester]
6 | 110 | COc1ccc(C(=O)Nc2ccccc2)cc1NCc1cccc([N+](=O)[O-])c1 [Example 215, 4-Methoxy-3-(3-nitro-benzylamino)-N-phenyl-benzamide]
7 | 241 | COc1ccc(C(=O)Nc2ccccc2)cc1NCc1ccccc1F [Example 270, 4-Methoxy-3-(2-fluoro-benzylamino)-N-phenyl-benzamide]
8 | 39 | COc1ccc(C(=O)Nc2ccccc2)cc1NS(=O)(=O)c1ccc2ccccc2c1 [Example 140, 3-(Naphthalene-2-sulfonylamino)-4-methoxy-N-phenyl-benzamide]
9 | 198 | COc1ccc(C(=O)Nc2ccccc2)cc1NCc1cc(F)cc(F)c1 [Example 267, 4-Methoxy-3-(3,5-difluoro-benzylamino)-N-phenyl-benzamide]
10 | 304 | COc1ccc(C(=O)Nc2ccccc2)cc1NCc1ccc(O)cc1 [Example 272, 3-(4-Hydroxy-benzylamino)-4-methoxy-N-phenyl-benzamide]
11 | 509 | COc1ccc(C(=O)Nc2ccccc2)cc1NCc1ccc(OC(C)=O)cc1 [Example 220, Acetic acid 4-[(2-methoxy-5-phenylcarbamoyl-phenylamino)-methyl]-phenyl Ester]
12 | 46 | COc1ccc(C(=O)Nc2ccccc2)cc1NS(=O)(=O)c1cc(Cl)cc(Cl)c1 [Example 248, 3-(3,5-Dichloro-benzenesulfonylamino)-4-methoxy-N-phenyl-benzamide]
13 | 892 | COc1ccc(C(=O)Nc2ccccc2)cc1NCc1ccccc1C [Example 223, 4-Methoxy-3-(2-methyl-benzylamino)-N-phenyl-benzamide]
14 | 213 | COc1ccc(C(=O)Nc2ccccc2)cc1NCc1ccc(N(C)C)cc1 [Example 268, 3-(4-Dimethylamino-benzylamino)-4-methoxy-N-phenyl-benzamide]

The next lines start with the molecule.

Row | SMILES | IC50 [nM]
15 | COc1ccc(C(=O)Nc2ccc(F)c(F)c2)cc1NC(=S)Nc1cccc(C(=O)O)c1 [Example 162, 3-{3-[5-(3,4-Difluoro-phenylcarbamoyl)-2-methoxy-phenyl]-thioureido}-benzoic Acid] | 55
16 | COc1ccc(NC(=O)c2ccc(F)c(F)c2)cc1NC(=S)Nc1cccc(C(=O)O)c1 [Example 169, 3-{3-[5-(3,4-Difluoro-benzoylamino)-2-methoxy-phenyl]-thioureido}-benzoic Acid] | 246
17 | COc1ccc(NC(=O)c2ccc(Cl)c(Cl)c2)cc1NS(=O)(=O)c1ccc(C)cc1 [Example 197, 3,4-Dichloro-N-[4-methoxy-3-(toluene-4-sulfonylamino)-phenyl]-benzamide] | 36
18 | COc1ccc(NC(=O)c2ccc(Cl)c(Cl)c2)cc1NCc1cccc(F)c1 [Example 244, 3,4-Dichloro-N-[3-(3-fluoro-benzylamino)-4-methoxy-phenyl]-benzamide] | 86

Same assay, conditions: Table 2; concentration not given

Row | h15LO, value given as bare % [%] | SMILES
19 | 93.07 | COc1ccc(C(=O)Nc2ccccc2)cc1NS(=O)(=O)c1cccc(C#N)c1 [Example 195, 3-(3-Cyano-benzenesulfonylamino)-4-methoxy-N-phenyl-benzamide]
20 | 64 | COc1ccc(C(=O)Nc2ccccc2)cc1NCc1ccc(C)cc1 [Example 237, 4-Methoxy-3-(4-methyl-benzylamino)-N-phenyl-benzamide]
21 | 60 | COc1ccccc1CNc1cc(C(=O)Nc2ccccc2)ccc1OC [Example 238, 4-Methoxy-3-(2-methoxy-benzylamino)-N-phenyl-benzamide]
22 | 97.88 | COc1ccc(C(=O)Nc2ccccc2)cc1NCc1ccc(O)c([N+](=O)[O-])c1 [Example 225, 3-(4-Hydroxy-3-nitro-benzylamino)-4-methoxy-N-phenyl-benzamide]

Continued, molecule first:

Row | SMILES | h15LO, value given as bare % [%]
23 | Nc1cc(NC(=O)c2ccc(F)c(F)c2)ccc1F [Example 151, 3,4-Difluoro-N-(3-amino-4-fluoro-phenyl)-benzamide] | 82.66
24 | COc1ccc(C(=O)Nc2ccc(F)cc2)cc1NC(=S)Nc1cccc(C(=O)O)c1 [Example 167, 3-{3-[5-(4-Fluoro-phenylcarbamoyl)-2-methoxy-phenyl]-thioureido}-benzoic Acid] | 96.22
25 | COc1ccc(C(=O)Nc2ccc(F)c(F)c2)cc1NS(=O)(=O)c1cccc(N)c1 [Example 185, 3-(3-Amino-benzenesulfonylamino)-4-methoxy-N-(3,4-difluoro-phenyl)-benzamide] | 99.71
26 | COc1ccc(NC(=O)c2ccc(F)c(F)c2)cc1NCc1cccs1 [Example 265, 3,4-Difluoro-N-{4-methoxy-3-[(thiophen-2-ylmethyl)-amino]-phenyl}-benzamide] | 98.89
27 | O=C(Nc1ccc(F)c(NS(=O)(=O)c2cccs2)c1)c1ccc(F)c(F)c1 [Example 206, 3,4-Difluoro-N-[4-fluoro-3-(thiophene-2-sulfonylamino)-phenyl]-benzamide] | 45.56
28 | O=C(Nc1ccc(F)cc1)c1ccc(OC(F)(F)F)c(Nc2cccc(C(F)(F)F)c2)c1 [Example 159, 4-Trifluoromethoxy-3-(3-trifluoromethyl-phenylamino)-N-(4-fluoro-phenyl)-benzamide] | 44.58
29 | COc1ccc(NC(=O)Nc2ccc(Cl)c(Cl)c2)cc1NC(=S)Nc1ccc(Cl)c([N+](=O)[O-])c1 [Example 175, 1-{3-[3-(4-Chloro-3-nitro-phenyl)-thioureido]-4-methoxy-phenyl}-3-(3,4-dichloro-phenyl)-urea] | 52
30 | COc1ccc(NC(=O)c2ccc(F)c(F)c2)cc1NS(=O)(=O)c1ccc(N)cc1 [Example 199, 3,4-Difluoro-N-[4-methoxy-3-(4-amino-benzenesulfonylamino)-phenyl]-benzamide] | 97.68
31 | COc1ccc(NC(=O)Nc2ccc(Cl)c(Cl)c2)cc1NC(=S)Nc1cc(C(F)(F)F)cc(C(F)(F)F)c1 [Example 174, 1-{3-[3-(3,5-Bis-trifluoromethyl-phenyl)-thioureido]-4-methoxy-phenyl}-3-(3,4-dichloro-phenyl)-urea] | 53
32 | COc1ccc(NC(=O)c2ccc(F)c(F)c2)cc1NS(=O)(=O)c1cccc([N+](=O)[O-])c1 [Example 203, 3,4-Difluoro-N-[4-methoxy-3-(3-nitro-benzenesulfonylamino)-phenyl]-benzamide] | 92.01
33 | COC(=O)c1cccc(NC(=S)Nc2cc(NC(=O)Nc3ccc(Cl)c(Cl)c3)ccc2OC)c1 [Example 172, 3-(3-{5-[3-(3,4-Dichloro-phenyl)-ureido]-2-methoxy-phenyl}-thioureido)-benzoic Acid Methyl Ester] | 89.03
34 | COc1ccc(C(=O)Nc2ccc(F)c(F)c2)cc1NCc1ccccc1 [Example 227, 3-Benzylamino-4-methoxy-N-(3,4-difluoro-phenyl)-benzamide] | 95.74
35 | COc1ccc(NC(=O)Nc2ccc(Cl)c(Cl)c2)cc1NS(=O)(=O)c1cccs1 [Example 207, Thiophene-2-sulfonic acid {5-[3-(3,4-dichloro-phenyl)-ureido]-2-methoxy-phenyl}-amide] | 41.59

Reference: patent US6528528B2 (Warner-Lambert Company, priority 1997, dated 2003)
